Source: ChEMBL document CHEMBL1201862, “PubChem BioAssay data set” (2004)
Calls of active or inactive are those of the source.

Key:
[1] = molecular target: T1, Apoptotic protease-activating factor 1 (Homo sapiens, UniProt O14727); experiment: SAR analysis of small molecule Activators of Apaf-1 in a Fluorescent assay.; format: functional; settings: read-out: EC50_Mean;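 also: caspase-3 cleavage of fluorogenic Rh110 DEVD substrate downstream of apoptosome activation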
T1 sequence (O14727 whole entry): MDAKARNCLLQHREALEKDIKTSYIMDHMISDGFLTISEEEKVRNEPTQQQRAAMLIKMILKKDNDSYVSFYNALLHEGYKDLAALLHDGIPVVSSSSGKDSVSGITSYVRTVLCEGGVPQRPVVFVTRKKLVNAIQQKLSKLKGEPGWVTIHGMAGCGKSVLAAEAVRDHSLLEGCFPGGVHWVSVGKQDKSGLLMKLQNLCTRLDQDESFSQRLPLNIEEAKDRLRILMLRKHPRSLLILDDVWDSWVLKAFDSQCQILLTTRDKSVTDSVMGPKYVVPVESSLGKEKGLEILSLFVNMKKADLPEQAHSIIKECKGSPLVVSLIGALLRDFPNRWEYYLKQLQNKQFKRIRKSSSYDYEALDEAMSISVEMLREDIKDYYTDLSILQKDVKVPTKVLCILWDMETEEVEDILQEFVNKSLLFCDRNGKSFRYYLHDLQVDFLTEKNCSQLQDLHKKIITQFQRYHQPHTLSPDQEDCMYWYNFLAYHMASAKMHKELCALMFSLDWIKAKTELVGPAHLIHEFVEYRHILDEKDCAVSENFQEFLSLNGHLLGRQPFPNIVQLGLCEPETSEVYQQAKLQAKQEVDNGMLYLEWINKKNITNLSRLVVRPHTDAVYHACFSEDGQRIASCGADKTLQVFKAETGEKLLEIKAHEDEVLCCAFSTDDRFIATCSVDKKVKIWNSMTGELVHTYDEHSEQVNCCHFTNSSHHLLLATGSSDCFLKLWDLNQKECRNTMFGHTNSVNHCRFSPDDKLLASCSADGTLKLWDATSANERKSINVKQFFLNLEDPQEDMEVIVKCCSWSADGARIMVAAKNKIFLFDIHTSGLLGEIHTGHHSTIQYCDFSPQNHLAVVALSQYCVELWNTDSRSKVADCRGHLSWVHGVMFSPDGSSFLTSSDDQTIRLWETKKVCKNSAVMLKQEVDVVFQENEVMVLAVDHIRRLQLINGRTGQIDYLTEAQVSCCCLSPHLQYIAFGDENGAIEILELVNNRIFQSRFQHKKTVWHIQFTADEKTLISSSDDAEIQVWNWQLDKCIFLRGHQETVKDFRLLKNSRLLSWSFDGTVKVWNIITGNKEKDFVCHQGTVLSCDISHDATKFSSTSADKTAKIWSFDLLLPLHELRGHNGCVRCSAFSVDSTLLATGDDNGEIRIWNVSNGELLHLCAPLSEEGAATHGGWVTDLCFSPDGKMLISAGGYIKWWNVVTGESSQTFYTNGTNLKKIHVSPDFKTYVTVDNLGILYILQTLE

[2] = off-target signal loss in HeLa-CEM21 co-culture – HeLa F-luc CTL cells, cherry-picked, counter-screen for HIV-1 Env fusion inhibitor project, dose response (AID 652040); format: functional, cell-based;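 also: potency for signal decrease marking cytotoxic or nonspecific inhibition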
[3] = HIV-1 AD8 envelope cell-cell fusion blockers – cherry-pick, dose response (AID 652062); format: functional, cell-based;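 also: luciferase signal from cell-cell fusion driven by HIV-1 clade B AD8 Env; potency is for inhibitors of fusion seen as a drop in luminescence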
[4] = viability loss in CEM21 cells – cell-based, CellTiter-Glo luminescence, cherry-picked, cytotoxicity control for viral fusion inhibitor project, dose response (AID 652042); format: functional;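 also: potency for signal decrease meaning cytotoxicity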
[5] = blockers of HIV-1 envelope-mediated cell-cell fusion – cherry-pick, dose response (AID 652057); format: functional, cell-based
[6] = blockers of HIV-1 ZM109 envelope-driven cell-cell fusion – HeLa effector, CEM target cells, luciferase, cherry-pick, dose response (AID 652058); format: functional, cell-based;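 also: luciferase signal from HIV-1 Env mediated cell-cell fusion of effector and target cells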
[7] = inhibitors of EBV LMP1 NF-kappaB signaling – cell-based, luciferase reporter, luminescence, dry powder, set 2, dose response (AID 624376); format: functional
[8] = viability loss in HEK293T cells – cell-based, cherry-picks, cytotoxicity control for HIV Vif inhibitor project, dose response (AID 652208); format: functional
[9] = molecular target: Adenosylmethionine-8-amino-7-oxononanoate aminotransferase (Mycobacterium tuberculosis, UniProt P9WQ81); experiment: Mycobacterium tuberculosis BioA enzyme inhibitor Measured in Biochemical System Using Plate Reader - 2163-02_Inhibitor_Dose_CherryPick_Activity.; format: functional, Mycobacterium tuberculosis UT205
Sequence of Adenosylmethionine-8-amino-7-oxononanoate aminotransferase (P9WQ81 whole entry): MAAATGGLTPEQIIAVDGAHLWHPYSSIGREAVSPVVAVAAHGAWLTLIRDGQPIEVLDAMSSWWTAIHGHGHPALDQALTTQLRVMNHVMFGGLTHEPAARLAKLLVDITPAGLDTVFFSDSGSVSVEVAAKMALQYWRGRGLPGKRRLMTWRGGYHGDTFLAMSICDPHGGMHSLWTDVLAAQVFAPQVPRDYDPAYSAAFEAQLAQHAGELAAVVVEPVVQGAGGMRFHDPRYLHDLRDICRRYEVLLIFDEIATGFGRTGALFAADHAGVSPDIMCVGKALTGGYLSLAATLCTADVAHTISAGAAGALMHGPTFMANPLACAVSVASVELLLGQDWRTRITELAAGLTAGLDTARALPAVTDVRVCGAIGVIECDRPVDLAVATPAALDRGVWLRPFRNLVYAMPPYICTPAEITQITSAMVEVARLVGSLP

COC(=O)[C@@H]1COC(c2ccc(F)cc2F)=N1
EC50 [1]: > 100 µM (inactive)

C[C@H]1CNC(=O)c2c(C(=O)N3CCN(C(=O)OC(C)(C)C)CC3)ncn21
AC50 [2]: 2.18 µM (active)
AC50 [3]: 4.38 µM (active)
AC50 [4]: 47.9 µM (active)
AC50 [5]: 0.805 µM (active)
AC50 [6]: 3.02 µM (active)

COc1ccc(S(=O)(=O)N(C)C[C@H]2Oc3ncc(/C=C/c4ccccc4)cc3C(=O)N([C@H](C)CO)C[C@@H]2C)cc1
AbsAC35 [7]: 45.64 µM

COc1ccc(S(=O)(=O)Nc2cccc3ccc(O)cc23)cc1
AC50 [8]: > 52 µM (inactive)

N#C[C@H]1[C@@H](c2ccccc2)[C@@H](CO)N1C(=O)Nc1cccc(F)c1
AC50 [9]: 1.76 µM (active)
